Assay results published in ChEMBL document CHEMBL4665910, “Novel Thienopyridines as RIPK2 Inhibitors for Treating Inflammatory Bowel Disease” (ACS Med Chem Lett, 2020).

Target: Receptor-interacting serine/threonine-protein kinase 2 (Homo sapiens, UniProt O43353)
Assay: Inhibition of RIPK2 (unknown origin) incubated for 1 hr by Lanthascreen TR-FRET assay

Chain of Receptor-interacting serine/threonine-protein kinase 2 (O43353 whole entry): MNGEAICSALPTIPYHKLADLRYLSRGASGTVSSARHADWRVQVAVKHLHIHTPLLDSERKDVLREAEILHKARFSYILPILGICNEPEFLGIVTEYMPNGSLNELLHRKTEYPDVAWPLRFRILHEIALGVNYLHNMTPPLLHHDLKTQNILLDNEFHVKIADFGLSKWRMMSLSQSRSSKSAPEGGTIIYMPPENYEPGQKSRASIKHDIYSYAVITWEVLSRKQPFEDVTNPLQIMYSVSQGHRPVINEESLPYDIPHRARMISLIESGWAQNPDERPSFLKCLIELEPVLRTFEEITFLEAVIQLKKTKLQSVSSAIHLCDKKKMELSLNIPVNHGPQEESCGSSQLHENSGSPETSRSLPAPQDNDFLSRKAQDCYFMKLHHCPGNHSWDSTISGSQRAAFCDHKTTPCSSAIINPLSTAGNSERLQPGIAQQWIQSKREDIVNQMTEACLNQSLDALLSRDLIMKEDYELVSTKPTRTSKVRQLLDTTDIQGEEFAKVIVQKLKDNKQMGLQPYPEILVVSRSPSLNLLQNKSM

Question: For C1=C(c2cc3c(Nc4ccc5scnc5c4)ccnc3s2)CCNCC1, which IC50 is on record?
Answer: The IC50 was at most 10 nM.

Question: How did the IC50 turn out when C1=C(c2cc3c(Nc4ccc5scnc5c4)ccnc3s2)C2(CCOC2)NC1 (stereo unspecified) was run?
Answer: The IC50 was at most 10 nM.

Question: CC1C(c2cc3c(Nc4ccc5scnc5c4)c(F)cnc3s2)CCCN1C (stereo unspecified) was tested. Which IC50 did it give?
Answer: The IC50 was at most 10 nM.

Question: CC1NCCC1c1cc2c(Nc3cc4ncsc4cc3F)ccnc2s1 (stereo unspecified) was tested. Which IC50 did it give?
Answer: Its IC50 is at most 10 nM.

Question: With C1=C(c2cc3c(Nc4ccc5scnc5c4)ccnc3s2)C2(CCOCC2)NC1 as the compound, how does the IC50 read?
Answer: Its IC50 is at most 10 nM.

Question: Which IC50 does the source give for CC1NCCC=C1c1cc2c(Nc3ccc4scnc4c3)ccnc2s1 (stereo unspecified) here?
Answer: The IC50 was at most 10 nM.
